From the supplement of paper PMC11208160
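Note: IS621 bridge recombinase in Escherichia coli cells against a fixed T5 target plasmid.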

Assay: recombinant UMI read abundance after kanamycin selection (control-corrected) (log10(CPM+1)); higher = more efficient recombination; extreme values may be limits of the assay; sequences stand for … in AGTGCAGAGAAAATCGGCCAGTTTTCTCTGCCTGCAGTCCGCATGCCGTGGGACCCCTTGGGTTCTAACCTGTTGCCTAGATTTATGCAGCGGACTGCCTTTCTCCCAAAGTGATAAACCGG…AGGTTGGTTTCACT; site = the 11-nt donor
Outline: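 Two replicates each of selected and unselected plating were used in this pooled Escherichia coli screen of donor and donor-binding-loop pairs for the IS621 bridge recombinase. Selection was with IPTG (0.07 mM) and kanamycin. Counts of recombinant UMIs, amplified across the donor–target junction, were converted to CPM, averaged, scaled by control-derived factors and reported as log10(CPM+1).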
With “CACTCCTCATGGACCGGTTTTCCCGGTAATCCGTATTTGCC (site CACTCCTCTGG)” the “recombinant UMI read abundance (log10)” value was 3.11.
In the case of “CACTCCTCATGGACCGGTTTTCCCGGTAATCCGTATTTGCC (site CACTCCTCTGT)”, the “recombinant UMI read abundance (log10)” value is reported as 2.74.
For “CACTCCTCATGGACCGGTTTTCCCGGTAATCCGTATTTGCC (site CACTCCTCTTG)”, the “recombinant UMI read abundance (log10)” value was 2.48.
For “CACTCCTCATGGACCGGTTTTCCCGGTAATCCGTATTTGCC (site CACTCGTCTGG)”, the “recombinant UMI read abundance (log10)” value was 0.
With “CACTCCTCATGGACCGGTTTTCCCGGTAATCCGTATTTGCC (site CACTCTTCTGG)” the “recombinant UMI read abundance (log10)” value was 0.
With “CACTCCTCATGGACCGGTTTTCCCGGTAATCCGTATTTGCC (site CACTGCTCTGG)” the “recombinant UMI read abundance (log10)” value was 0.00619.
In the case of “CACTCCTCATGGACCGGTTTTCCCGGTAATCCGTATTTGCC (site CACTTCTCTGG)”, the “recombinant UMI read abundance (log10)” value is reported as 0.
In the case of “CACTCCTCATGGACCGGTTTTCCCGGTAATCCGTATTTGCC (site CAGTCCTCTGG)”, the “recombinant UMI read abundance (log10)” value is reported as 1.2.
With “CACTCCTCATGGACCGGTTTTCCCGGTAATCCGTATTTGCC (site CATTCCTCTGG)” the “recombinant UMI read abundance (log10)” value was 1.62.
In the case of “CACTCCTCATGGACCGGTTTTCCCGGTAATCCGTATTTGCC (site CCCTCCTCTGG)”, the “recombinant UMI read abundance (log10)” value is reported as 0.97.
With “CACTCCTCATGGACCGGTTTTCCCGGTAATCCGTATTTGCC (site CGCTCCTCTGG)” the “recombinant UMI read abundance (log10)” value was 1.95.
For “CACTCCTCATGGACCGGTTTTCCCGGTAATCCGTATTTGCC (site CTCTCCTCTGG)”, the “recombinant UMI read abundance (log10)” value was 2.29.
With “CACTCCTCATGGACCGGTTTTCCCGGTAATCCGTATTTGCC (site GACTCCTCTGG)” the “recombinant UMI read abundance (log10)” value was 0.
In the case of “CACTCCTCATGGACCGGTTTTCCCGGTAATCCGTATTTGCC (site TACTCCTCTGG)”, the “recombinant UMI read abundance (log10)” value is reported as 1.39.
In the case of “CACTCCTCATGGACCGGTTTTCCCGGTAATCCGTATTTGCG (site CACTCCTCTAG)”, the “recombinant UMI read abundance (log10)” value is reported as 1.11.
For “CACTCCTCATGGACCGGTTTTCCCGGTAATCCGTATTTGCG (site CACTCCTCTCG)”, the “recombinant UMI read abundance (log10)” value was 1.71.
With “CACTCCTCATGGACCGGTTTTCCCGGTAATCCGTATTTGCG (site CACTCCTCTGG)” the “recombinant UMI read abundance (log10)” value was 0.
For “CACTCCTCATGGACCGGTTTTCCCGGTAATCCGTATTTGCG (site CACTCCTCTTG)”, the “recombinant UMI read abundance (log10)” value was 2.29.
For “CACTCCTCATGGACCGGTTTTCCCGGTAATCCGTATTTGGC (site CACTCCTCTGA)”, the “recombinant UMI read abundance (log10)” value was 0.526.
For “CACTCCTCATGGACCGGTTTTCCCGGTAATCCGTATTTGGC (site CACTCCTCTGC)”, the “recombinant UMI read abundance (log10)” value was 2.75.
In the case of “CACTCCTCATGGACCGGTTTTCCCGGTAATCCGTATTTGGC (site CACTCCTCTGG)”, the “recombinant UMI read abundance (log10)” value is reported as 0.943.
For “CACTCCTCATGGACCGGTTTTCCCGGTAATCCGTATTTGGC (site CACTCCTCTGT)”, the “recombinant UMI read abundance (log10)” value was 2.45.
For “CACTGGGCATGGACCGGTTTTCCCGGTAATCCGTATTTGGA (site CACTAGGCTTC)”, the “recombinant UMI read abundance (log10)” value was 0.812.
With “CACTGGGCATGGACCGGTTTTCCCGGTAATCCGTATTTGGA (site CACTCGGCTTC)” the “recombinant UMI read abundance (log10)” value was 0.0182.
With “CACTGGGCATGGACCGGTTTTCCCGGTAATCCGTATTTGGA (site CACTGGGCTTC)” the “recombinant UMI read abundance (log10)” value was 1.12.
In the case of “CACTGGGCATGGACCGGTTTTCCCGGTAATCCGTATTTGGA (site CACTTGGCTTC)”, the “recombinant UMI read abundance (log10)” value is reported as 0.0159.
For “CACTTAACATGGACCGGTTTTCCCGGTAATCCGTATTTGCC (site CACTTAACTGG)”, the “recombinant UMI read abundance (log10)” value was 0.774.
In the case of “CACTTCCCATGGACCGGTTTTCCCGGTAATCCGTATTTGCT (site CAATTCCCTAG)”, the “recombinant UMI read abundance (log10)” value is reported as 0.
In the case of “CACTTCCCATGGACCGGTTTTCCCGGTAATCCGTATTTGCT (site CACTTCCCTAG)”, the “recombinant UMI read abundance (log10)” value is reported as 0.617.
For “CACTTCCCATGGACCGGTTTTCCCGGTAATCCGTATTTGCT (site CAGTTCCCTAG)”, the “recombinant UMI read abundance (log10)” value was 0.521.
For “CACTTCCCATGGACCGGTTTTCCCGGTAATCCGTATTTGCT (site CATTTCCCTAG)”, the “recombinant UMI read abundance (log10)” value was 0.
In the case of “CACTTCTCATGGACCGGTTTTCCCGGTAATCCGTATTTGGG (site CACTTCTCTCC)”, the “recombinant UMI read abundance (log10)” value is reported as 0.00463.
In the case of “CACTTCTCATGGACCGGTTTTCCCGGTAATCCGTATTTGGG (site CCCTTCTCTCC)”, the “recombinant UMI read abundance (log10)” value is reported as 0.00683.
For “CACTTCTCATGGACCGGTTTTCCCGGTAATCCGTATTTGGG (site CGCTTCTCTCC)”, the “recombinant UMI read abundance (log10)” value was 0.
In the case of “CACTTCTCATGGACCGGTTTTCCCGGTAATCCGTATTTGGG (site CTCTTCTCTCC)”, the “recombinant UMI read abundance (log10)” value is reported as 0.
With “CACTTGACATGGACCGGTTTTCCCGGTAATCCGTATTTGCT (site AACTTGACTAG)” the “recombinant UMI read abundance (log10)” value was 0.
With “CACTTGACATGGACCGGTTTTCCCGGTAATCCGTATTTGCT (site CACTTGACTAG)” the “recombinant UMI read abundance (log10)” value was 2.31.
With “CACTTGACATGGACCGGTTTTCCCGGTAATCCGTATTTGCT (site GACTTGACTAG)” the “recombinant UMI read abundance (log10)” value was 0.
In the case of “CACTTGACATGGACCGGTTTTCCCGGTAATCCGTATTTGCT (site TACTTGACTAG)”, the “recombinant UMI read abundance (log10)” value is reported as 0.365.
With “CAGAAGCCATGGACCGGTTTTCCCGGTAATCCGTATTTGGT (site CAGAAGCCTAC)” the “recombinant UMI read abundance (log10)” value was 0.535.
With “CAGAAGCCATGGACCGGTTTTCCCGGTAATCCGTATTTGTT (site CAGAAGCCTAA)” the “recombinant UMI read abundance (log10)” value was 1.14.
With “CAGAAGCCATGGACCGGTTTTCCCGGTAATCCGTATTTGTT (site CGGAATCCTAA)” the “recombinant UMI read abundance (log10)” value was 0.
With “CAGAATACATGGACCGGTTTTCCCGGTAATCCGTATTTGTT (site CAGAATACTAA)” the “recombinant UMI read abundance (log10)” value was 2.12.
For “CAGAATACATGGACCGGTTTTCCCGGTAATCCGTATTTGTT (site CGGAATCCTAA)”, the “recombinant UMI read abundance (log10)” value was 0.
In the case of “CAGAATTCATGGACCGGTTTTCCCGGTAATCCGTATTTGGA (site CAGAATTCTTC)”, the “recombinant UMI read abundance (log10)” value is reported as 3.34.
For “CAGATACCATGGACCGGTTTTCCCGGTAATCCGTATTTGGA (site CAGATACCTTC)”, the “recombinant UMI read abundance (log10)” value was 0.0326.
In the case of “CAGCACGCATGGACCGGTTTTCCCGGTAATCCGTATTTGCA (site CAGCACGCTTG)”, the “recombinant UMI read abundance (log10)” value is reported as 2.58.
For “CAGCTCACATGGACCGGTTTTCCCGGTAATCCGTATTTGAT (site AAGCTCACTAT)”, the “recombinant UMI read abundance (log10)” value was 0.444.
For “CAGCTCACATGGACCGGTTTTCCCGGTAATCCGTATTTGAT (site CAGCTCACTAT)”, the “recombinant UMI read abundance (log10)” value was 2.31.
With “CAGCTCACATGGACCGGTTTTCCCGGTAATCCGTATTTGAT (site GAGCTCACTAT)” the “recombinant UMI read abundance (log10)” value was 0.00621.
For “CAGCTCACATGGACCGGTTTTCCCGGTAATCCGTATTTGAT (site TAGCTCACTAT)”, the “recombinant UMI read abundance (log10)” value was 0.404.
For “CAGCTCGCATGGACCGGTTTTCCCGGTAATCCGTATTTGAC (site CAGCTCGCTGT)”, the “recombinant UMI read abundance (log10)” value was 2.55.
For “CAGGAAACATGGACCGGTTTTCCCGGTAATCCGTATTTGCA (site CAGGAAACTTG)”, the “recombinant UMI read abundance (log10)” value was 1.79.
With “CAGGAAACATGGACCGGTTTTCCCGGTAATCCGTATTTGCA (site CCGGAAACTTG)” the “recombinant UMI read abundance (log10)” value was 0.
With “CAGGAAACATGGACCGGTTTTCCCGGTAATCCGTATTTGCA (site CGGGAAACTTG)” the “recombinant UMI read abundance (log10)” value was 0.
In the case of “CAGGAAACATGGACCGGTTTTCCCGGTAATCCGTATTTGCA (site CTGGAAACTTG)”, the “recombinant UMI read abundance (log10)” value is reported as 2.49.
For “CAGGAATCATGGACCGGTTTTCCCGGTAATCCGTATTTGCA (site CAGGAATCTTG)”, the “recombinant UMI read abundance (log10)” value was 3.17.
For “CAGGAATCATGGACCGGTTTTCCCGGTAATCCGTATTTGCG (site AAGGAATCTCG)”, the “recombinant UMI read abundance (log10)” value was 1.51.
In the case of “CAGGAATCATGGACCGGTTTTCCCGGTAATCCGTATTTGCG (site CAGGAATCTCG)”, the “recombinant UMI read abundance (log10)” value is reported as 3.26.
With “CAGGAATCATGGACCGGTTTTCCCGGTAATCCGTATTTGCG (site GAGGAATCTCG)” the “recombinant UMI read abundance (log10)” value was 0.395.
For “CAGGAATCATGGACCGGTTTTCCCGGTAATCCGTATTTGCG (site TAGGAATCTCG)”, the “recombinant UMI read abundance (log10)” value was 2.69.
For “CAGGACTCATGGACCGGTTTTCCCGGTAATCCGTATTTGTT (site CAGGACTCTAA)”, the “recombinant UMI read abundance (log10)” value was 2.96.
With “CAGGCATCATGGACCGGTTTTCCCGGTAATCCGTATTTGTC (site CAGGCATCTGA)” the “recombinant UMI read abundance (log10)” value was 2.76.
In the case of “CAGGCGTCATGGACCGGTTTTCCCGGTAATCCGTATTTGGA (site CAGGCGTCTTC)”, the “recombinant UMI read abundance (log10)” value is reported as 1.89.
In the case of “CAGGGCCCATGGACCGGTTTTCCCGGTAATCCGTATTTGTG (site CAGGGCCCTCA)”, the “recombinant UMI read abundance (log10)” value is reported as 0.282.
With “CAGGGTGCATGGACCGGTTTTCCCGGTAATCCGTATTTGGT (site CAGGGTGCTAC)” the “recombinant UMI read abundance (log10)” value was 1.49.
With “CAGTACACATGGACCGGTTTTCCCGGTAATCCGTATTTGCT (site CAGTACACTAG)” the “recombinant UMI read abundance (log10)” value was 2.43.
With “CAGTCAACATGGACCGGTTTTCCCGGTAATCCGTATTTGTG (site CAGTCAACTCA)” the “recombinant UMI read abundance (log10)” value was 0.0625.
